{"source": "paper PMC5007476", "about": "“Use of cross-reactivity immunoassay to orient insulin replacement in diabetic patients with high levels of insulin antibodies” (MethodsX, 2016)", "key": {"[1]": {"system": "insulin antibodies (IA) in patient serum", "assay": "Displacement radioimmunoassay (RIA) for affinity and cross-reactivity of insulin antibodies in patient serum", "format": "binding, human", "conditions": "for Selectivity (S = KL/KCi): at start of study, KL = K0 of regular human insulin, KCi = K0 of the competitor analog; for K0, average (median) affinity constant: at start of study (before change of insulin), patient serum 30 μL, duplicates, 5 days at 4 °C (near equilibrium), tracer mono [^125I A14] insulin ~20,000 cpm (5.8 × 10^−11 M), competitor 1 × 10^−9 to 10^−6 M", "protocol": "The homogeneous mono [^125I A14]\nFor in vitro cross-reactivity assessment a displacement RIA was applied by using the tracer described above. Briefly, duplicate 30 μL serum samples from the patient were incubated during 5 days at 4 °C (near equilibrium) with a constant amount of tracer (∼20,000 cpm). […] Insulin analogs were engineered to enhance desired molecular properties without altering immunogenicity, at least in theory. However, since the amino acid sequence of these insulin variants were changed to alter its absorption, distribution, metabolism and excretion characteristics, some residual capacity to elicit specific antibodies must be expected. […] Also the grade of alteration of the natural insulin molecule is of importance.\nIn order to express the degree of cross reactivity of IA induced by the initial insulin formulation (¨Ligand̈, L), against a panel of slow or fast action insulin analogs as described above (Competitors̈, Ci), the parameter selectivity (S), as defined elsewhere (Berzofsky and Schechter; Berzofsky et al.), was employed. Approximate values for average (median) affinity (K0) for L and those from each Ci, were obtained from the plots of B/F signals as a function of each competitor concentration, interpolating in the abscissa axis the respective doses corresponding to the maximum/2 signal [(B/F)0/2] (Graphical abstract, RIA plot). Alternatively, a best fit to the true affinity constants was obtained by representing B/F signals for each ligand as a function of free tracer (F) calculated by the formula: F = [C/(1 + B/F)]. It is important to emphasize that the molar concentration of the tracer in the test must be lower than the inverse of K0 value. This condition precludes the preparation of the respective labeled competitors to perform specific single RIAs for each homologous ligand. (Berzofsky and Schechter). In the RIA the concentration of tracer was 5.8 × 10^−11 M (see Preparation of the homogeneous tracer mono [^125I A14] Insulin) and K0 values for IA (ranging 10^6–10^8 M^−1) were obtained from previous work of our laboratory (Trabucchi et al.; Trabucchi et al.).\nFinally, the respective Selectivity ratios were obtained using the expression: Si = KL/KCi."}, "serum albumin": {"system": "serum albumin", "conditions": "background, no reference given; cited from earlier work", "from_the_text": "(§1) Detemir is an insulin analog in which a fatty acid (myristic acid) is bound to the lysine amino acid at position B29. […] Accordingly, its persistence as a potential antigen in circulation must not be ruled out. Glargine was created by modifying three amino acids. […] In order to avoid ..."}, "[2]": {"conditions": "cited from earlier work", "from_the_text": "as §1, with “... || Glulisine is a rapid-acting insulin analog that differs from human insulin in that the amino acid asparagine at position B3 is replaced by lysine and the lysine in position B29 is replaced by glutamic acid.” for “...”"}, "[3]": {"conditions": "background, no reference given, cited from earlier work", "from_the_text": "as §1"}, "[4]": {"assay": "Metabolic control of the patient (glycaemia, HbA1c) under insulin treatment", "format": "in vivo, human"}, "[5]": {"system": "anti-insulin antibodies (IA)", "description": "Insulin used as a tracer for both radiometric methods, RBA and RIA, was produced using recombinant human insulin (HumulinC from Eli Lilly, Indiana, USA) devoid of preservative substances by chromatography on a Sephadex G25 column (Amersham Biosciences, New Jersey, USA). The labeling and HPLC purification steps were carried out following as indicated by Linde et al. [3] and Jørgensen et al. [4], respectively. Specific radioactivity of roughly 300–380 μCi/μg was routinely achieved.\nThe concentration of tracer in both, RBA and RIA, was 5.8 × 10^−11, calculated from an activity of 20,000 cpm; Relative mass of insulin, 5808 Da; Final incubation volume, 0,12 mL; Gamma counter efficiency, 70%; Specific activity of fresh insulin tracer, 380 μCi/μg.\nRadioligand binding assay for IA assessment, performed routinely as official analysis service at IDEHU-CONICET laboratory, was based on the original procedure indicated by Kurtz et al. [5] and carried out essentially as previously described by Stumpo et al. [6]. […] Results were expressed as specific insulin binding percentage B% = Bwi% (preincubated without cold insulin) – Bie% (preincubated with excess cold insulin). Reproducibility was assessed at different binding levels. […]"}, "[6]": {"conditions": "effect of the sequence modification; background, no reference given; cited from earlier work", "from_the_text": "(§2) Lispro was engineered through recombinant DNA technology so that the penultimate lysine and proline residues on the C-terminal end of the B-chain were reversed. […] This allowed larger amounts of active monomeric insulin to be available for postprandial (after meal) injections. Similar to Glulisine, the monomeric state of Lispro theoretically may diminish the chance of phagocytosis by cells of the Immune System resulting in lower immunogenicity."}, "insulin receptor": {"system": "insulin receptor", "conditions": "effect of the sequence modification; background, no reference given; cited from earlier work", "from_the_text": "as §2"}, "[7]": {"conditions": "after 6 months of Glulisine 0,6 IU/Kg/day by pump infusion"}, "[8]": {"conditions": "before change, more than 3 IU/kg/day NPH human insulin complemented with crystalline human insulin"}}, "note": "Where two headings read alike, the source gives them in different places.", "data": [{"substance": "Detemir", "values": [{"measurement": "Selectivity (S = KL/KCi)", "setting": "[1]", "value": "~1"}, {"measurement": "affinity for serum albumin (in words)", "setting": "serum albumin", "value": "high affinity for serum albumin"}, {"measurement": "duration/onset of action (in words)", "setting": "[2]", "value": "increasing its duration of action"}]}, {"substance": "Glargine", "values": [{"measurement": "K0, average (median) affinity constant", "setting": "[1]", "value": "2.1e+07", "unit": "M⁻¹"}, {"measurement": "Selectivity (S = KL/KCi)", "setting": "[1]", "value": 37.6}, {"measurement": "solubility at physiological pH (in words)", "setting": "[3]; physiological pH", "value": "less soluble at a physiological pH"}, {"measurement": "isoelectric point", "setting": "[3]; shifted from 5.4 by two added arginine residues", "value": 6.7}, {"measurement": "solubility at slightly acidic pH (in words)", "setting": "[3]; slightly acidic pH", "value": "more soluble at a slightly acidic pH"}, {"measurement": "duration/onset of action (in words)", "setting": "[2]; background, no reference given", "value": "prolonged action when compared with biosynthetic human insulin"}]}, {"substance": "Glulisine", "values": [{"measurement": "K0, average (median) affinity constant", "setting": "[1]", "value": "1e+06", "unit": "M⁻¹"}, {"measurement": "Selectivity (S = KL/KCi)", "setting": "[1]", "value": 790}, {"measurement": "IA binding rate compared with regular human insulin", "setting": "[1]; in vitro, at the same doses, start of study", "value": "1/790"}, {"measurement": "HbA1c", "setting": "[4]; [7]", "value": 7.6, "unit": "%"}, {"measurement": "HbA1c (IFCC)", "setting": "[4]; [7]", "value": 60, "unit": "mmol/mol"}, {"measurement": "metabolic control (in words)", "setting": "[4]; [7]", "value": "recovered metabolic control"}, {"measurement": "change of B% signal (in words)", "setting": "[5]", "value": "significant decrease in B% signal"}, {"measurement": "duration/onset of action (in words)", "setting": "[2]; background, no reference given", "value": "rapid-acting"}]}, {"substance": "Lispro", "values": [{"measurement": "K0, average (median) affinity constant", "setting": "[1]", "value": "1.96e+07", "unit": "M⁻¹"}, {"measurement": "Selectivity (S = KL/KCi)", "setting": "[1]", "value": 40.3}, {"measurement": "K0, affinity constant", "setting": "[1]; control RIA on serum sample after 14 months (of Glulisine treatment)", "value": "3.4e+07", "unit": "M⁻¹"}, {"measurement": "formation of insulin dimers and hexamers (in words)", "setting": "[6]", "value": "blocked the formation of insulin dimers and hexamers"}, {"measurement": "insulin receptor binding (in words)", "setting": "insulin receptor", "value": "did not alter the insulin receptor binding"}]}, {"substance": "NPH human insulin: NPH human insulin (Humulin – Eli Lilly) complemented with crystalline human insulin", "values": [{"measurement": "HbA1C", "setting": "[4]; [8]", "value": 11, "unit": "%"}, {"measurement": "HbA1C (IFCC)", "setting": "[4]; [8]", "value": 97, "unit": "mmol/mol"}, {"measurement": "metabolic control (in words)", "setting": "[4]; before change, more than 3 IU/kg/day NPH human insulin complemented with crystalline human insulin, last two years", "value": "inadequate metabolic control"}]}, {"substance": "regular human insulin: unlabeled regular crystalline human insulin (Humulin, Eli Lilly)", "values": [{"measurement": "K0, average (median) affinity constant", "setting": "[1]", "value": "7.9e+08", "unit": "M⁻¹"}]}]}
